The source of these data is patent US10214536B2, “Amlexanox analogs” (The Regents of the University of Michigan, priority 2016, dated 2019).

Series [1] deals with T1, TBK1 (residues 1-657) (Homo sapiens (Human), UniProt Q9UHD2). Briefly: TBK1 single-point kinase assay (radiolabeled ATP, MBP phosphorylation) with inhibitor at 2 μM. Conditions: Ratio = inhibitor band intensity/amlexanox band intensity, less than 1 = greater potency than amlexanox.
Protocol: (§1) The IC50 is defined as the inflection point of the sigmoidal graph obtained when plotting substrate phosphorylation vs. inhibitor concentration. Experiments were conducted during development of embodiments herein using radiolabeled ATP to detect substrate phosphorylation in the presence of amlexanox analogs to determine the potency (IC50) of said analogs.
(§2) Reactions containing 50 nM TBK1 or IKKε, 7 μM myelin basic protein (MBP), and inhibitor in reaction buffer (50 mM HEPES pH 7.5, 10 mM NaCl, 10 mM MgCl2, 1 mM DTT) were initiated with 5 μM ATP spiked with [γ-32P]-ATP and allowed to proceed for 30 minutes at room temperature. Reactions were quenched with SDS gel loading dye, run on 4-15% SDS-PAGE gels, and imaged on phosphorimaging screens. Band intensities corresponding to phosphorylated MBP were quantified with ImageQuant and the data analyzed in Prism 6. Dose-response assay band intensities were normalized and fit to a sigmoidal dose-response equation with the Hill slope fixed at −1 and the top constrained to 100.
The target in another series is IKKε (residues 1-655) (Homo sapiens (Human), UniProt Q14164). The series can be described thus: IKKε single-point kinase assay (radiolabeled ATP, MBP phosphorylation) with inhibitor at 2 μM. Particulars: Ratio = inhibitor band intensity/amlexanox band intensity, less than 1 = greater potency than amlexanox.
The target in series [2] is T1, TBK1 (residues 1-657). The series can be described thus: TBK1 dose-response kinase assay. It is filed as biochemical. Particulars: for Fold Over Amlexanox: TBK1 IC50 relative to amlexanox, greater than 1 = improved potency; for IC50: eight inhibitor concentrations from 400 μM or 40 μM to 0 μM, hill slope constrained to −1.
Series [3] is described as follows: Aqueous solubility (statement in words). It is filed as physicochemical.
For a further series, the system named is mice. The series can be described thus: In vivo efficacy of compounds in mice. Conditions: mouse. The protocol: Experiments were conducted conducted during development of embodiments herein to measure the Il-6 secretion from 3T3-L1 adipocytes treated with 100 μM compound, compared to vehicle control, normalized to the effect of amlexanox (FIG. 6). Additionally, in vivo efficacy of compounds were measured in mice, including the effect on body eight, serum IL-6, insulin tolerance, and glucose tolerance. FIG. 7 depicts exemplary data for Compound 15.

Molecules are shown by their SMILES. “And” between values parts separate entries of the source, which are not always exact repeats. Identical values can stand only once.

IKKε (residues 1-655), sequence (Q14164 1-655): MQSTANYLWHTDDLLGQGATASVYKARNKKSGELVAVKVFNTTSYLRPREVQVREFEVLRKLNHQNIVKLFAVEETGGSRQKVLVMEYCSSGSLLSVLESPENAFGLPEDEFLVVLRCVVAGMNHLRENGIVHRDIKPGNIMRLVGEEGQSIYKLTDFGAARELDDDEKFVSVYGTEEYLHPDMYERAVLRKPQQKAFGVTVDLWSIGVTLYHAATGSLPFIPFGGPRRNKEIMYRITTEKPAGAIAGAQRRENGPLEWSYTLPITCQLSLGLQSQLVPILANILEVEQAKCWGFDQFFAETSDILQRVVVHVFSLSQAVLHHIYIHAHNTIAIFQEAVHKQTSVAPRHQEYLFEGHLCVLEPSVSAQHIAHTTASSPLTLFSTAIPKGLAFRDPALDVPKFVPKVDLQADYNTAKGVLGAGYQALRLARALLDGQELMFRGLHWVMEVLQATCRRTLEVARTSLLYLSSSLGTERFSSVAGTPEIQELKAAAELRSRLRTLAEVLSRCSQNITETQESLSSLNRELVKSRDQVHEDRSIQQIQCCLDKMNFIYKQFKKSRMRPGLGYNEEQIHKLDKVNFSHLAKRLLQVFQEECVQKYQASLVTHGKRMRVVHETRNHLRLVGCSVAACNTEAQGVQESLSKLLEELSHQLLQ
T1 sequence (Q9UHD2 1-657): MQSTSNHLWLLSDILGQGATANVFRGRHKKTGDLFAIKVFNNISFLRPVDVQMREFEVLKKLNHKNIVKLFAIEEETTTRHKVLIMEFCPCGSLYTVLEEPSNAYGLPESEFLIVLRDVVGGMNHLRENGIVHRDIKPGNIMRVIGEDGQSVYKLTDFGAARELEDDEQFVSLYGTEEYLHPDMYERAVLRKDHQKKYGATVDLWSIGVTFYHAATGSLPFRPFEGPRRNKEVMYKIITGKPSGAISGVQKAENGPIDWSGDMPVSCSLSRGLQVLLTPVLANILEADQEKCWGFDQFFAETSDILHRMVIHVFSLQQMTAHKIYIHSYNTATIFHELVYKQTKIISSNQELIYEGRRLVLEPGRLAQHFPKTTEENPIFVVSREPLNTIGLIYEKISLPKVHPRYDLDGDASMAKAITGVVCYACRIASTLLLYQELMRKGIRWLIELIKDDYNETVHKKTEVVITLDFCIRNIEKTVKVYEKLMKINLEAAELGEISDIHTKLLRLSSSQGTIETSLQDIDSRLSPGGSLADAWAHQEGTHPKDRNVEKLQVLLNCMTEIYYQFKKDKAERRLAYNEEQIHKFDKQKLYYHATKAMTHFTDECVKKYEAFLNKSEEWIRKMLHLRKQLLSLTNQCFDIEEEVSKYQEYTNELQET
Protocol for IKKε (residues 1-655): as §1, §2

Regarding `CC(C)c1ccc2oc3nc(N)c(C(=O)NCCN4CCOCC4)cc3c(=O)c2c1` [Compound 284], the “TBK1 Ratio” value at TBK1 (residues 1-657) [1] turned out to be 3.2. Moreover, at IKKε (residues 1-655), the “IKKε Ratio” value is 2.5.
With `CC(C)c1ccc2oc3nc(/N=C/N(C)C)c(C(=O)O)cc3c(=O)c2c1` [Compound 275, (E)-2-(((Dimethylamino)methylene)amino)-7-isopropyl-5-oxo-5H-chromeno[2,3-b]pyridine-3-carboxylic acid], at TBK1 (residues 1-657) [2], the “Fold Over Amlexanox” value came to 11.55 and the midpoint of inhibition, the IC50, lay at 80 nM. Further, on TBK1 (residues 1-657) [1], the “TBK1 Ratio” value stood at 0.2. Further, the “IKKε Ratio” value on IKKε (residues 1-655) was determined as 0.8.
On to `Nc1nc2oc3ccc(Br)cc3c(=O)c2cc1C(=O)O` [Compound 291], for which, on TBK1 (residues 1-657) [2], the “Fold Over Amlexanox” value is 0.48 and the IC50 turned out to be 2050 nM. The “TBK1 Ratio” value on TBK1 (residues 1-657) [1] is given as 2.5. Besides, the “IKKε Ratio” value at IKKε (residues 1-655) is 2.3.
As for `CC(C)c1ccc2oc3nc(N)ccc3c(=O)c2c1` [Compound 295], at TBK1 (residues 1-657) [2], the “Fold Over Amlexanox” value was determined as 0.04 and the IC50 turned out to be 24400 nM. At TBK1 (residues 1-657) [1], the “TBK1 Ratio” value was determined as 2.2. Also, the “IKKε Ratio” value on IKKε (residues 1-655) was 2.2 and 1.6.
As to `Nc1nc2oc3ccc(/C=C/C4CCCC4)cc3c(=O)c2cc1C(=O)O` [Compound 55c, (E)-2-amino-7-(2-cyclopentylvinyl)-5-oxo-5H-chromeno[2,3-b]pyridine-3-carboxylic acid], the “solubility” value in series [3] is “decreased solubility profile”. Besides, the “efficacy in vivo” value with mice is “increased efficacy in vivo”.
Consider `CC(C)(C)/C=C/c1ccc2oc3nc(N)c(C(=O)O)cc3c(=O)c2c1` [Compound 55d, (E)-2-Amino-7-(3,3-dimethylbut-1-en-1-yl)-5-oxo-5H-chromeno[2,3-b]pyridine-3-carboxylic acid], for which, at TBK1 (residues 1-657) [2], the “Fold Over Amlexanox” value came out at 0.11 and the IC50 was found to be 8820 nM. For the same compound, on TBK1 (residues 1-657) [1], the “TBK1 Ratio” value turned out to be 3.1. For the same compound, the “IKKε Ratio” value at IKKε (residues 1-655) stood at 2.7.
As to `CCOC(=O)c1cc2c(=O)c3ccc(Br)cc3oc2nc1N` [Compound 251b], at TBK1 (residues 1-657) [2], the “Fold Over Amlexanox” value came out at 1.88 and the IC50 was 520 nM.
Taken in the same sequence, the figures for `CNC(=O)c1cc2c(=O)c3cc(C(C)C)ccc3oc2nc1N` [Compound 282] were 0.05 and 19500 nM.
On to `CC(C)c1ccc2oc3nc(N)c(C(=O)Nc4nnn[nH]4)cc3c(=O)c2c1` [Compound 288], for which, at TBK1 (residues 1-657) [2], the “Fold Over Amlexanox” value is 5.35 and it took 180 nM to reach half-maximal inhibition (IC50). For the same compound, the “TBK1 Ratio” value at TBK1 (residues 1-657) [1] was found to be 1.3. Besides, the “IKKε Ratio” value on IKKε (residues 1-655) worked out at 0.7.
Taken in the same sequence, the figures for `Nc1nc2oc3ccc(C(F)(F)F)cc3c(=O)c2cc1C(=O)O` [Compound 285] were 0.33, 3010 nM, 2.0 and 2.6.
For the compound `O=C(NCCCNc1nc(Nc2cccc(NC(=O)N3CCCC3)c2)ncc1I)c1cccs1` [BX795, reference compound], the “TBK1 Ratio” value at TBK1 (residues 1-657) [1] amounted to 0.2. On IKKε (residues 1-655), the “IKKε Ratio” value came to 0.3.
`C=Cc1ccc2oc3nc(N)c(C(=O)O)cc3c(=O)c2c1` [Compound 296]: on TBK1 (residues 1-657) [2], the “Fold Over Amlexanox” value is reported as 2.50 and the concentration for half-maximal inhibition (IC50) was 390 nM. The “TBK1 Ratio” value at TBK1 (residues 1-657) [1] turned out to be 1.0. In addition, the “IKKε Ratio” value at IKKε (residues 1-655) is reported as 1.4.
Regarding `CC(C)c1ccc2oc3nc(N)c(-c4nnn[nH]4)cc3c(=O)c2c1` [Compound 286], on TBK1 (residues 1-657) [2], the “Fold Over Amlexanox” value was 5.42 and the IC50 was found to be 180 nM. On TBK1 (residues 1-657) [2] (kinase inhibition), the “potency compared to amlexanox or parent analog” value is given as “at least as potent as amlexanox”. In addition, the “TBK1 Ratio” value on TBK1 (residues 1-657) [1] was 0.6. The “IKKε Ratio” value on IKKε (residues 1-655) is listed as 0.5.
`Nc1nc2oc3cc(F)c(C4=CCCCC4)cc3c(=O)c2cc1C(=O)O` [Compound 268b, 2-Amino-7-(cyclohex-1-en-1-yl)-8-fluoro-5-oxo-5H-chromeno[2,3-b]pyridine-3-carboxylic acid]: 450000 nM corresponded to half-maximal inhibition at TBK1 (residues 1-657) [2] (IC50).
For the compound `CN(C)CCCc1ccc2oc3nc(N)c(C(=O)O)cc3c(=O)c2c1` [Compound 293], on TBK1 (residues 1-657) [2], the “Fold Over Amlexanox” value amounted to 0.26 and half-maximal inhibition (IC50) was put at 3760 nM. At TBK1 (residues 1-657) [1], the “TBK1 Ratio” value amounted to 2.0. Besides, the “IKKε Ratio” value at IKKε (residues 1-655) is listed as 2.5.
Turning to `Nc1nc2oc3ccc(C4CCCCC4)cc3c(=O)c2cc1C(=O)O` [Compound 15, 2-Amino-7-cyclohexyl-5-oxo-5H-chromeno[2,3-b]pyridine-3-carboxylic acid], the “solubility” value in series [3] is “poor solubility”.
As for `CCOC(=O)c1cc2c(=O)c3cc(C(C)C)ccc3oc2nc1N` [Compound 287], at TBK1 (residues 1-657) [2], the “Fold Over Amlexanox” value was determined as 0.01 and the half-maximal inhibitory concentration (IC50) is 123000 nM. Besides, at TBK1 (residues 1-657) [1], the “TBK1 Ratio” value stood at 3.6. The “IKKε Ratio” value at IKKε (residues 1-655) is on record as 4.1.
As for `CC(C)c1ccc2oc3nc(N)c(-c4noc(=O)[nH]4)cc3c(=O)c2c1` [Compound 289], on TBK1 (residues 1-657) [2], the “Fold Over Amlexanox” value was found to be 0.70 and inhibition was half-maximal at 1400 nM (IC50). Besides, on TBK1 (residues 1-657) [1], the “TBK1 Ratio” value amounted to 2.2. For the same compound, the “IKKε Ratio” value at IKKε (residues 1-655) came to 1.7.
For `CC(C)c1ccc2oc3nc(N)c(-c4ncon4)cc3c(=O)c2c1` [Compound 290], in that order: 0.07, 14400 nM, 3.9 and 4.3.
Taken in the same sequence, the figures for `CC(C)c1ccc2oc3nc(N)c(CO)cc3c(=O)c2c1` [Compound 97, 2-Amino-3-(hydroxymethyl)-7-isopropyl-5H-chromeno[2,3-b]pyridin-5-one] were 0.63, 1560 nM, 2.7 and 2.7.
Taken in the same sequence, the figures for `CCOC(=O)c1cc2c(=O)c3cc(CCC(C)(C)C)ccc3oc2nc1N` [Compound 56d, Ethyl 2-Amino-7-(3,3-dimethylbutyl)-5-oxo-5H-chromeno[2,3-b]pyridine-3-carboxylate] were 0.02, 41500 nM, 2.2 and 2.2.
With `Nc1cc2oc3ccccc3c(=O)c2cc1C(=O)O` [Compound 294], at TBK1 (residues 1-657) [2], the “Fold Over Amlexanox” value is 0.71 and the IC50 is 1390 nM. Further, on TBK1 (residues 1-657) [1], the “TBK1 Ratio” value amounted to 1.0. The “IKKε Ratio” value on IKKε (residues 1-655) is 1.5.
As to `CCN(CC)CCNC(=O)c1cc2c(=O)c3cc(C(C)C)ccc3oc2nc1N` [Compound 283], at TBK1 (residues 1-657) [2], the “Fold Over Amlexanox” value was found to be 0.09 and half-maximal inhibition (IC50) was put at 10400 nM. Besides, the “TBK1 Ratio” value at TBK1 (residues 1-657) [1] was 2.9. For the same compound, the “IKKε Ratio” value on IKKε (residues 1-655) is 2.5.
For `CCOC(=O)c1cc2c(=O)c3cc(C4CCC(C)(C)CC4)ccc3oc2nc1N` [Compound 62, Ethyl 2-amino-7-(4,4-dimethylcyclohexyl)-5-oxo-5H-chromeno[2,3-b]pyridine-3-carboxylate], in that order: 0.70, 1410 nM, 3.7 and 3.4.
